Consider 4 compounds from US8664269B2, “Nitroglycerin therapy for those unable to metabolize nitroglycerin” (Duke University, priority 2005, dated 2014).

Experiment [1] relates to patient with persistent angina. Nature of the experiment: Example I: GTN therapy of persistent angina, patient. It counts as in vivo, human. As for the experimental part:
A patient has persistent angina. Treatment by infusion with GTN 100 mcg/min has no effect. Infusion of nitroglycerin 100 mcg/min is continued along with infusion of N-acetylcysteine at 50 mg/kg every six hours.

The subject of experiment [2] is patient with congestive heart failure. The experiment is described as follows: Example II: GTN therapy of congestive heart failure, patient. Format: in vivo, human. The procedure:
A patient has congestive heart failure manifested by pulmonary congestion and low ventricular function. Treatment by infusion with GTN (100 mcg/min) has no effect. Infusion of GTN (100 mcg/min) is continued along with infusion of N-acetylcysteine at 50 mg/kg every 6 hours. After 10 minutes time, pulmonary congestion attenuates and ventricular function improves.

In experiment [3] the test system is patient with Type 1 diabetes on insulin regimen who develops angina. The experiment is described as follows: Example III: GTN therapy of angina, Type 1 diabetes patient on insulin regimen. It counts as in vivo, human.
In experiment [4] the test system is alcoholic patient who develops angina. Nature of the experiment: Example IV: GTN therapy of angina in an alcoholic. It counts as in vivo, human. Conditions: for resolution of angina: 600 mg P.O. (TID) with sublingual GTN (0.4 mg). The text has this: A alcoholic needs to imbibe alcohol to avoid withdrawal symptoms. The patient develops angina. Sublingual GTN ([…]) has no effect.

Experiment [5] deals with patient with heart attack (myocardial infarction). The experiment is described as follows: Example V: myocardial infarction, patient. As to conditions: IV GTN alone. Format: in vivo, human. The source says: A patient has a heart attack (myocardial infarction).
Experiment [6] concerns alcoholic with restenosis and chest pain. Nature of the experiment: Example VI: restenosis and chest pain in an alcoholic. Format: in vivo, human. The source says: A alcoholic has restenosis and chest pain.
Experiment [7] relates to person with high blood pressure. Nature of the experiment: Example VII: high blood pressure. As to conditions: 50 mg/min IV GTN alone; 200 mmHg systolic. It counts as in vivo, human. The procedure: A person has high blood pressure (200 mmHg systolic). […] Administration of Composition V (50 mg/ml and NAC 75 mg/ml) at 1 ml/min causes blood pressure to fall to 160 mmHg.

Experiment [8] deals with alcoholic with chronic obstructive pulmonary disease. Nature of the experiment: Example VIII: obstructive lung disease in an alcoholic, shortness of breath. It counts as in vivo, human. The text has this: A alcoholic with obstructive lung disease (chronic obstructive pulmonary disease) has shortness of breath.
A further experiment relates to Patient with asthma. Nature of the experiment: Example IX: asthma, patient, shortness of breath. Format: in vivo, human. As to conditions: nebulized combination of GTN (100 micromolar) and NAC (dose of I millimolar). The text has this: A patient with asthma experiences shortness of breath.
Experiment [9] deals with Patient with interstitial lung disease (pulmonary fibrosis). The experiment is described as follows: Example X: interstitial lung disease (pulmonary fibrosis), patient. It counts as in vivo, human. Conditions: nebulized GTN (10 micromolar) together with nebulized NAC (1 millimolar); patient on prednisone therapy. The text has this: A patient with interstitial lung disease (pulmonary fibrosis) experiences shortness of breath despite being on prednisone therapy.

Experiment [10] relates to patients receiving continuous GTN. As to conditions: intravenous NAC, short term studies; cited from earlier work.
The mark [11] stands for this setting: infusion of GTN 100 mcg/min alone.
Setting [12] is: infusion of N-acetylcysteine 50 mg/kg every six hours along with infusion of nitroglycerin 100 mcg/min.
Setting [13] is: infusion of N-acetylcysteine 50 mg/kg every 6 hours along with infusion of GTN 100 mcg/min.

With `O=[N+]([O-])OCC(CO[N+](=O)[O-])O[N+](=O)[O-]` [GTN, nitroglycerin], the “effect on persistent angina” value in [1] (setting [11]) is “no effect”. For the same compound, the “effect on congestive heart failure (pulmonary congestion, low ventricular function)” value in [2] (setting [11]) was “no effect”. Moreover, the effect on angina entry in experiment [3] (sublingual GTN (0.4 mcg) alone) and in experiment [4] (sublingual GTN (0.4 mcg) alone) was “no effect” each time. The “response of myocardial infarction patient” value in [5] is reported as “does not respond”. In addition, in experiment [6] (sublingual GTN 0.5 mg alone), the chest pain result is “does not relieve chest pain”. Besides, the “response of high blood pressure” value in experiment [7] is “does not respond”. Further, the shortness of breath result in [8] (nebulized GTN at a dose of 100 micromolar alone) is given as “does not cause improvement”.
For `CC(=O)N[C@@H](CS)C(=O)O` [N-acetylcysteine], the figures for the resolution of angina result in experiment [1] (setting [12]), in experiment [3] (N-acetylcysteine 600 mg P.O. TID along with sublingual GTN (0.4 mg)) and in experiment [4] were “the angina is resolved”, “causes the angina to resolve” and “resolution of the angina”, respectively. Besides, the “time until angina is resolved” value in [1] (setting [12]) was determined as 3 min. Further, the pulmonary congestion result in experiment [2] (setting [13]) is reported as “attenuates”. Moreover, the “time until pulmonary congestion attenuates and ventricular function improves” value in experiment [2] (setting [13]) was 10 min. For the same compound, the ventricular function result in experiment [2] (setting [13]) was “improves”. For the same compound, the chest pain result in [6] (oral NAC (300 mg) supplementing sublingual GTN 0.5 mg) was “chest pain is relieved”. In addition, the shortness of breath result was “causes improvement” in experiment [8] (nebulized combination of GTN (100 micromolar) and NAC (1 millimolar)); “causes improvement” in the experiment on Patient with asthma; “causes improvement” in [9]. Besides, the GTN tolerance result in experiment [10] is recorded as “reverse GTN tolerance”.
`O=C1O[C@H]([C@@H](O)CO)C(O)=C1O` [Vitamin C, ascorbic acid]: the resolution of angina entry in [3] (Vitamin C 10,000 mg/day P.O. along with sublingual GTN (0.4 mg)) is listed as “causes the angina to resolve”. The chest pain result in experiment [6] (oral vitamin C (10,000 mg/day P.O.) supplementing sublingual GTN 0.5 mg) is given as “chest pain is relieved”.
For `N[C@@H](CCC(=O)N[C@@H](CS)C(=O)NCC(=O)O)C(=O)O` [glutathione], the resolution of angina entry in experiment [4] was “resolution of the angina”. Besides, the chest pain entry in [6] (glutathione 60 mg P.O. (T.I.D.) supplementing sublingual GTN 0.5 mg) is given as “chest pain is relieved”.
